“Also recorded” adds a separate entry of the source.

Data set [1] can be described thus: Stability of bleach catalysts: UV-vis absorbance of solutions at pH 11. It counts as physicochemical. How it is done: The stability of bleach catalysts having the structures shown in Table 2 was determined by preparing solutions of these compounds and measuring their UV-vis absorbance.
A solution of each compound was prepared by dissolving each compound in a mixture of 50 wt. % water and 50 wt. % acetone. The concentration of each solution was 0.28 mM.
The pH of each solution was set to 11 by adding a diluted solution of sodium hydroxide.
The UV-vis absorption of each solution was measured just after preparing the samples (t=0), then at 2 h and 48 h using a UV-Vis Evolution 220 FC-1135 spectrophotometer.

Data set [2] in a line: Amount of solvent system needed to dissolve 0.2 g of bleach catalyst (effect of surfactant on solubility). The format is physicochemical. Here is the method:
The amount of solvent needed to dilute 0.2 g of bleach catalyst 1 was determined. Subsequently solvent systems containing a solvent and 0.06 wt. % of surfactant, based on the total weight of the solvent system, were prepared, and the amount of solvent system needed to dilute 0.2 g of bleach catalyst 1 was determined. It will be recognised that for the preparation of a supported catalyst on a carrier it is necessary to dilute the bleach catalyst in a solvent system.
The results of the amount of solvent system without surfactant and solvent system with surfactant needed to dissolve 0.2 g of bleach catalyst 1 are shown in Table 5.

[3] abbreviates: t = 0, 0.28 mM in 50 wt. % water / 50 wt. % acetone.
The mark [4] stands for this setting: t = 48 h, 0.28 mM in 50 wt. % water / 50 wt. % acetone.

In the case of `O=S1(=O)N=C(c2ccccn2)c2ccccc21` [Bleach catalyst 1, 3-(33yridine-2-yl)-1,2-benzisothiazole-1,1-dioxide], the “Absorption at 445 nm” value in data set [1] (setting [3]) and in data set [1] (setting [4]) was under 0.05 each time. Moreover, the Appearance result in data set [1] (setting [3]) and in data set [1] (setting [4]) was “Transparent” in each case. Also, the “Amount of solvent system needed to dissolve 0.2 g of bleach catalyst” value is on record as 5 g in data set [2] (Acetone); 2.5 g in data set [2] (Acetone with 0.06 wt. % surfactant (ROKAnol L7A)); 13 g in data set [2] (Ethyl acetate); 11 g in data set [2] (Ethyl acetate with 0.06 wt. % surfactant (ROKAnol L7A)); 3.5 g in data set [2] (Tetrahydrofuran); 2.75 g in data set [2] (Tetrahydrofuran with 0.06 wt. % surfactant (ROKAnol L7A)).

As for `CC(C)(C)C1=NS(=O)(=O)c2ccccc21` [Bleach catalyst C, 3-tert-butyl-1,2-benzisothiazole-1,1-dioxide], in data set [1] (setting [3]), the “Absorption at 445 nm” value is under 0.05 and the Appearance result is “Transparent”. Also, in data set [1] (setting [4]), the “Absorption at 445 nm” value was under 0.05 and the Appearance result is reported as “Transparent”.

As to `O=S1(=O)N=C(c2ccccc2)c2ccccc21` [Bleach catalyst B, 3-phenyl-1,2-benzisothiazole-1,1-dioxide], in data set [1] (setting [3]), the “Absorption at 445 nm” value is listed as under 0.05 and the Appearance result is on record as “Transparent”. Further, in data set [1] (setting [4]), the “Absorption at 445 nm” value was under 0.05 and the Appearance entry is recorded as “Transparent”.

Turning to `CC1=NS(=O)(=O)c2ccccc21` [Bleach catalyst A, 3-methyl-1,2-benzisothiazole-1,1-dioxide], in data set [1] (setting [3]), the “Absorption at 445 nm” value was under 0.05 and the Appearance result is on record as “Transparent”. Moreover, in data set [1] (setting [4]), the “Absorption at 445 nm” value is 0.37 and the Appearance result was “coloured/yellow; also recorded: Yellowing”.

Take `O=S1(=O)N=C(c2cccnc2)c2ccccc21` [Bleach catalyst 2, 3-(pyridine-3-yl)-1,2-benzisothiazole-1,1-dioxide]: the “Absorption at 445 nm” value in data set [1] (setting [3]) and in data set [1] (setting [4]) was under 0.05 each time. Further, the Appearance entry in data set [1] (setting [3]) and in data set [1] (setting [4]) was “Transparent” each time.
